Test results taken from patent publication US20140235578A1, “METHODS FOR TREATING NEOPLASIA AND FOR IDENTIFYING COMPOSITIONS USEFUL IN SUCH THERAPY” (priority 2007, published 2014).

Experiments:
[1] = tested on: melanomas in the skin of DMBA-initiated TOP2β+ and skin-specific top2β knockout mice; experiment: Carcinogenesis assay using a mouse skin model; assay type: in vivo
From the text: Skin-specific top2β knockout mice and their TOP2β^+ controls were derived from the top2β^+/flox2 and top2β^flox2/flox2 lines previously reported. The top2β^flox2 allele contains two loxP sites flanking three Top2β exons that encode a region of TopIIβ containing the active-site tyrosyl residue; this allele expresses wild-type TopIIβ, but is converted to a null allele top2β^Δ2 upon exposure to Cre recombinase. Skin-specific deletion within the floxed top2β allele is achieved by crossing the top2β^flox2 lines with mice expressing Cre recombinase from the keratin 14 promoter (kindly provided by Andrew P. McMahon, Harvard University). The K14-Cre transgenic mouse line expresses Cre in the keratinocytes of the epidermis and the hair follicles during prenatal and postnatal development. Mice with the genotype K14-Cre top2β^flox2/flox2, K14-Cre top2β^+/flox2, top2β^flox2/flox2 and top2β^+/flox2 were generated and used in this study; with the exception of K14-Cre top2β^flox2/flox2 mice, which lack TopIIβ in skin cells, all the others are phenotypically Top2β^+ in all tissues.
Seven-week old skin-specific top2β knockout mice and their TOP2β^+ controls were used in the study. The back of each mouse was shaved two days prior to treatment. The tumor initiator DMBA (1 μmol in 100 μl of DMSO) was applied once in the first week, followed by various treatments (two applications per week) for six groups of animals: Group 1, DMSO (100 μl), 5 applications; Group 2, VP-16 (10 μmol in 100 μl DMSO), 5 applications; Group 3, VP-16 (20 μmol in 200 μl of DMSO), 3 applications; Group 4, the tumor promoter TPA (phorbol 12-tetradecanoate 13-acetate, 17 nmol in 100 μl DMSO), 8 applications; Group 5, VP-16 (5 μmol in 100 μl DMSO), 5 application; Group 6, VP-16 (5 μmol in 100 μl DMSO), 10 applications. Mice were examined every week for appearance of melanomas on their skins. The number of melanomas visibly notable was scored at the end of the 16th week. The average numbers of tumors induced in different treatment groups were compared using Student's t-test.

A549 lung carcinoma = experiment: Cytotoxicity IC50 against A549 lung carcinoma; assay type: cell-based
[2] = target: purified recombinant human Top2β (Homo sapiens, UniProt Q02880); experiment: In vitro DNA cleavage assay (Bodley et al.), Top2β; assay type: biochemical; conditions: for Poisoning activity against Top2β: DNA cleavage, purified recombinant human Top2β; for activity against Top2β: as stated in Table 2; on Poisoning activity against Top2β: key: each + represent roughly 10-fold in activity; −: non-detectable
purified recombinant human Top2β, sequence (Q02880 whole entry): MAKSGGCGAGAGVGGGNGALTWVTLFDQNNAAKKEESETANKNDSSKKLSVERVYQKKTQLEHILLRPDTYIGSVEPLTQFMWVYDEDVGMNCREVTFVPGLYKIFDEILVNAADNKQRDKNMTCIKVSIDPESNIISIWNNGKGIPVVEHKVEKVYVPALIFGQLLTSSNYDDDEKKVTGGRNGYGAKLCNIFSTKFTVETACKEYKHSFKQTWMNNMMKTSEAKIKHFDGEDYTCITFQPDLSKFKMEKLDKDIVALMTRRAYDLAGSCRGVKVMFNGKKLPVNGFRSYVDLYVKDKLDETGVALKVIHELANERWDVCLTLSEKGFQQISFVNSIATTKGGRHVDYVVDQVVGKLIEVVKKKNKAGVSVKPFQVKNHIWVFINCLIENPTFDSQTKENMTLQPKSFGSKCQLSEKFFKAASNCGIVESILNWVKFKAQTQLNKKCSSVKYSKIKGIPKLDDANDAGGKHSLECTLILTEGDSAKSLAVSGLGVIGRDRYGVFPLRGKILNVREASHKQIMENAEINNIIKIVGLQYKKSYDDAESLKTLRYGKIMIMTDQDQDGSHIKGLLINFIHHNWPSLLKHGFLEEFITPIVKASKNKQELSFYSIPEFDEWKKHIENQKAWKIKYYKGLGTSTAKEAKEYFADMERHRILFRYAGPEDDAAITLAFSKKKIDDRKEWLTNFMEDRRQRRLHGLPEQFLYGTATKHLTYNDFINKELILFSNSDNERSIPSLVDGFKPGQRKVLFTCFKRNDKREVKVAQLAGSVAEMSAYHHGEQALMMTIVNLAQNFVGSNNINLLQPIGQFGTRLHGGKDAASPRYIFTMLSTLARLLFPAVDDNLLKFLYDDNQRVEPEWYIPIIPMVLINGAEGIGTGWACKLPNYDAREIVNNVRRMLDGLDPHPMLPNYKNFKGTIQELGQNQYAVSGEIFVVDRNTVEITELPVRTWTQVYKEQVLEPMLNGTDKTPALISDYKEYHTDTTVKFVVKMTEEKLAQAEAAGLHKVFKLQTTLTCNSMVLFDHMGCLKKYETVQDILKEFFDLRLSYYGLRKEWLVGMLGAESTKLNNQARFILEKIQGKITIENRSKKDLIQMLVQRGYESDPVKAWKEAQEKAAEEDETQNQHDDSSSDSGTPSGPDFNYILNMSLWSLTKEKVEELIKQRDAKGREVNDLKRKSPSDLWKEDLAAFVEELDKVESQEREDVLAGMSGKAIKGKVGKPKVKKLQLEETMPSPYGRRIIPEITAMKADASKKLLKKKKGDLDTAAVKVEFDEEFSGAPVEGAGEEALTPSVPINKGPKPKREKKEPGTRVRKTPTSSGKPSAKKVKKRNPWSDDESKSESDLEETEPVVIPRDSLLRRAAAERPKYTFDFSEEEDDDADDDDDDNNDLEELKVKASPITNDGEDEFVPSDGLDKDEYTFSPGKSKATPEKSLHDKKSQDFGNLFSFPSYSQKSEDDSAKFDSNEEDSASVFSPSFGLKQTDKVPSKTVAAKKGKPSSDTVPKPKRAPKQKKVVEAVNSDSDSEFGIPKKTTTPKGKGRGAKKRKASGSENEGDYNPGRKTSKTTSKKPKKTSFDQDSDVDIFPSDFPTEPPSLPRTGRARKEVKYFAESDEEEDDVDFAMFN
Method: (§1) Various β-carboline derivatives of compounds of Formula I above were evaluated for their antineoplastic activities and for their ability to preferentially poison Top2 isozymes. These compounds (i.e. those in Table 1 below) were also evaluated for Top2 isozyme-specific poisoning using the in vitro DNA cleavage assay described by Bodley et al. In the studies, purified recombinant human Top2 isozymes were used.
(§2) Reactions were terminated with SDS (final 1%) and digested with proteinase K (100 μg/ml at 50° C. for 1 hr). After adding gel loading solution, the reaction mixtures were analyzed by agarose gel electrophoresis. Gel was dried and exposed to x-ray films for visualization.
(§3) In certain preferred embodiments, the methods for identifying Top2α preferential poisons include using in vitro DNA cleavage assays. In the in vitro DNA cleavage assay, compounds as potential Top2 poisons are tested for their isozyme specificities through this assay using purified recombinant human Top2α (“hTop2α”) and human Top2β (“h Top2β”) isozymes. In this assay, the ability of various Top2 poisons to induce Top2 isozyme-mediated DNA cleavage of ^32P end-labeled linearized plasmid DNA was assessed. Thus, the relative specificity of various Top2 poisons against Top2 isozymes can be qualitatively determined based on the depletion of band intensities and/or the intensities of bands representing the cleavage products.

[3] = target: purified recombinant human Top2α (Homo sapiens, UniProt P11388); experiment: In vitro DNA cleavage assay (Bodley et al.), Top2α; assay type: biochemical; conditions: as stated in Table 2
purified recombinant human Top2α, sequence (P11388 whole entry): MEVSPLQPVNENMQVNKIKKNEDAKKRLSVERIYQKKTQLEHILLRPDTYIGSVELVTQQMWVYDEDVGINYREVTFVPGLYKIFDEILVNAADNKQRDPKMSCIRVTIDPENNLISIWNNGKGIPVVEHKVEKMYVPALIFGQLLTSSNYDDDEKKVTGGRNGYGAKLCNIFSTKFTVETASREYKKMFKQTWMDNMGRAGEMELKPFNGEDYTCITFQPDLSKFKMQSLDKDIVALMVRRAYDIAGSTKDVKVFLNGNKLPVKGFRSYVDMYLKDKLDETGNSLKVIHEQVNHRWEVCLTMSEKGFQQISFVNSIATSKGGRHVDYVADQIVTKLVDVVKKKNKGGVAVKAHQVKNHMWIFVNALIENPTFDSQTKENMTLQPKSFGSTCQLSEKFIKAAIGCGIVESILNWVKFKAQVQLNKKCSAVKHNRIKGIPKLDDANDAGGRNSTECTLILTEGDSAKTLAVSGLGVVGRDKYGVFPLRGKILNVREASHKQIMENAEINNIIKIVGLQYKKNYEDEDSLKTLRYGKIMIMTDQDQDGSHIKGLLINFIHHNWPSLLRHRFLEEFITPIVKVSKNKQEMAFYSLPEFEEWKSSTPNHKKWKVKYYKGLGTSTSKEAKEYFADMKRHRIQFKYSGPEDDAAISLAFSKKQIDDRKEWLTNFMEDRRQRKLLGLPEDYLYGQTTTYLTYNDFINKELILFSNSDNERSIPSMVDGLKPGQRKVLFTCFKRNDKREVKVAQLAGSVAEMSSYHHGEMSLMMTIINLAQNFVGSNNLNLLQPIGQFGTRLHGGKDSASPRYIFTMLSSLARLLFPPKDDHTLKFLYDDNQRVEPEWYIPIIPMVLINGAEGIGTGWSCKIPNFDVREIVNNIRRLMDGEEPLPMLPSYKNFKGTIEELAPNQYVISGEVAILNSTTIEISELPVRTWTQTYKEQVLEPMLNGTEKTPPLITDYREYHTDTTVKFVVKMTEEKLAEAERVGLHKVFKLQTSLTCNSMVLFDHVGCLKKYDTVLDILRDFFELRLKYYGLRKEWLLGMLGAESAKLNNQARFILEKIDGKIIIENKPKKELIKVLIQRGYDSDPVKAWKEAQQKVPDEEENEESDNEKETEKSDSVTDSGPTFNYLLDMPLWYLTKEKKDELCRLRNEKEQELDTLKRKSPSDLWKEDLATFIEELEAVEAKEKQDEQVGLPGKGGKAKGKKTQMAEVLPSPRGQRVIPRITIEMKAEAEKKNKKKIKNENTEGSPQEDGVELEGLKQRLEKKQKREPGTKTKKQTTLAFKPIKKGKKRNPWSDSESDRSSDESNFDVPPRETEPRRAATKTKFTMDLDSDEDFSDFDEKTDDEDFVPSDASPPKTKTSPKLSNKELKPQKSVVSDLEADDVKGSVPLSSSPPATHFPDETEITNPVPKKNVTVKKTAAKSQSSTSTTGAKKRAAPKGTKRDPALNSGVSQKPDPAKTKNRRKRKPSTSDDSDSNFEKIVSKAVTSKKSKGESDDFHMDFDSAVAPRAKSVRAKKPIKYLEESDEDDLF
Method: as §1, §2, §3

H9C2 cardiomyocytes [4] = experiment: γ-H2AX DNA damage signal by Western blotting; assay type: cell-based; conditions: for effect on doxorubicin-induced γ-H2AX: ROS scavenger 100 μg/ml, added 30 min prior to doxorubicin
Method: Cell lysates were analyzed by Western blotting using anti-γ-H2AX or anti-α-tubulin antibody (for assessing protein loading). […] Cells were then lysed and analyzed by Western blotting using anti-γ-H2AX or anti-α-tubulin antibody. […] Cells were then lysed and analyzed by Western blotting using anti-γ-H2AX or anti-α-tubulin antibody.
(§4) Vitamin C and NAC were added 30 min prior to doxorubicin. Cell lysates were then analyzed by Western blotting using anti-γ-H2AX or anti-α-tubulin antibody. […] Cell lysates were then analyzed by Western blotting (upper panel) using anti-γ-H2AX or anti-α-tubulin antibody. Quantification of γ-H2AX signals is shown in the lower panel. C, H9C2 cells were treated with 0.1% DMSO (labeled DMSO), bortezomib (1 μM) or MG132 (4 μM) for 30 min, followed by co-treatment with either 0.1% DMSO (labeled control) or 0.5 μM doxorubicin (labeled Doxo) for 1.5 hrs. Neutral comet assay was then performed as described in Materials and Methods. The average comet tail moments were plotted as histograms (mean±SEM). *p-value<0.001, t-test.

H9C2 cardiomyocytes [5] = assay type: cell-based; conditions: bortezomib 1 μM or MG132 4 μM co-treatment, 0.5 μM doxorubicin, p<0.001
Method: as §4
The amount of Top2 cleavage complexes was measured by a band depletion assay as described in Materials and Methods. Cells were lysed either immediately or after reversal of the Top2 cleavage complexes (labeled R+250). Cell lysates were analyzed by Western blotting using anti-Top2α/Top2β or anti-α-tubulin antibody. […] Cells were then lysed and protein levels of Top2α, and Top2β isozymes were determined by Western blotting. […] Cell lysates were immunoblotted using anti-Top2β antibody. D, H9C2 cells were treated with ICRF187 (100 μM) for 4 hrs, followed by treatment with doxorubicin (Doxo, 0, 0.5 and 1 μM) for 1.5 hrs. […]

Top2β = Top2β protein level by Western blotting in H9C2 cells; assay type: cell-based; conditions: 1 μM co-treatment
Method: The amount of Top2 cleavage complexes was measured by a band depletion assay as described in Materials and Methods. Cells were lysed either immediately or after reversal of the Top2 cleavage complexes (labeled R+250). Cell lysates were analyzed by Western blotting using anti-Top2α/Top2β or anti-α-tubulin antibody. […] Cells were then lysed and protein levels of Top2α, and Top2β isozymes were determined by Western blotting. […] Cell lysates were immunoblotted using anti-Top2β antibody. D, H9C2 cells were treated with ICRF187 (100 μM) for 4 hrs, followed by treatment with doxorubicin (Doxo, 0, 0.5 and 1 μM) for 1.5 hrs. Neutral comet assay was then performed as described in Materials and Methods. The average comet tail moments were plotted as histograms (mean±SEM). * p-value<0.001, t-test.

[6] = tested on: Top2β+/− and Top2β−/− MEFs; experiment: 4-day MTT assay in transformed MEFs; assay type: cell-based, mouse; conditions: triplicates
Method: (§5) Primary MEFs were isolated from E13.5 Top2β^+/+, Top2β^+/Δ2 and Top2β^Δ2/Δ2 mouse embryos, as described (the Top2β^Δ2 allele contains a deletion in the coding region of the active-site tyrosyl residue). SV40-transformed MEFs were obtained by transformation with pAN2 DNA as described. Cells were maintained in DMEM supplemented with 10% FetalPlex animal serum complex (Gemini Bio-Products), L-glutamine (2 mM), penicillin (100 units/ml), and streptomycin (100 μg/ml) in a 37° C. incubator with 5% CO2. PC12 cells were first clonally selected and then used to generate Top2β-shRNA and control-shRNA knockdown cells. A rat Top2β-shRNA sequence (5′-[…]-3′) was generated based on the 643-bp partial rat TopIki cDNA sequence (GenBank™ accession number D14046). Duplex (5′-[…]-3′) DNA was made and cloned into the LentiLox 3.7 vector (obtained from Dr. van Parijs, MIT). The control-shRNA sequence (5′-[…]-3′) was created by altering three nucleotides in the rat Top2β-shRNA sequence (underlined). The duplex (5′-[…]-3′) DNA was cloned into the LentiLox 3.7 vector. […]
(§6) Top2β contributes minimally to VP-16 cytotoxicity in transformed cells. […] To test if Top2β is also important for VP-16 cytotoxicity, we determined the IC50 of VP-16 in two pairs of transformed Top2β knockout/knockdown cells using 4-day MTT assay (in triplicates). […]

[7] = tested on: control-shRNA-PC12 and Top2β-shRNA-PC12 cells; experiment: 4-day MTT assay in PC12 knockdown cells; assay type: cell-based, rat
Method: as §5, §6

Question: For CCCCCCCCCCCCCC(=O)O[C@@H]1[C@@H](C)[C@@]2(O)[C@@H](C=C(CO)C[C@]3(O)C(=O)C(C)=C[C@@H]23)[C@@H]2C(C)(C)[C@]12OC(C)=O [TPA, phorbol 12-tetradecanoate 13-acetate], which “ratio of average number of melanomas per mouse, Top2β+ versus Top2β− mice” value ([1]; Group 4, TPA treatment) is on record?
Answer: 1.3

Question: What about the “increase in the average number of melanomas per mouse versus DMSO” value ([1]; TOP2β+ mice, Group 4, 17 nmol × 8 applications) of the same compound?
Answer: 130%

Question: What about the “increase in skin melanoma versus DMSO” value ([1]; TOP2β− mice, Group 4, 17 nmol × 8 applications) of the same compound?
Answer: 150%

Question: What does the source list for “2,9-dibenzyl-1-chlorophenyl-9H-pyrido[3,4-b]indol-2-ium [compound 8]”?
Answer: IC50 (A549 lung carcinoma): 6100 nM; Poisoning activity against Top2β [2]: −; activity against Top2β [2]: non-detectable; activity against Top2α [3]: roughly 20 fold

Question: What does the source list for CCCCOc1ccc2c3cc[n+](Cc4ccccc4)c(C)c3n(CC(C)C)c2c1 [compound 3, 2-benzyl-7-butoxy-9-isobutyl-1-methyl-9H-pyrido[3,4-b]indol-2-ium]?
Answer: IC50 (A549 lung carcinoma): 4600 nM; Poisoning activity against Top2β [2]: −; activity against Top2β [2]: non-detectable; activity against Top2α [3]: roughly 20 fold

Question: For ICRF-193, which “effect on doxorubicin (0.5 μM)- and VP-16 (10 μM)-induced γ-H2AX” value (H9C2 cardiomyocytes [4]) is on record?
Answer: abolished

Question: Which results are given for Cc1c2c(cc[n+]1Cc1ccccc1)c1ccc(OCC(C)C)cc1n2CC(C)C [compound 4, 2-benzyl-7-isobutoxy-9-isobutyl-1-methyl-9H-pyrido[3,4-b]indol-2-ium]?
Answer: IC50 (A549 lung carcinoma): 5300 nM; Poisoning activity against Top2β [2]: −; activity against Top2β [2]: non-detectable; activity against Top2α [3]: roughly 20 fold

Question: For CC(=O)N[C@@H](CS)C(=O)O [N-Acetyl Cysteine], which “effect on doxorubicin-induced γ-H2AX” value (H9C2 cardiomyocytes [4]) is on record?
Answer: unaffected

Question: For “9-butyl-1-chlorobenzyl-2-(3-phenylpropyl)-9H-pyrido[3,4-b]indol-2-ium [compound 10]”, which IC50 (A549 lung carcinoma) is on record?
Answer: < 1700 nM

Question: And the “Poisoning activity against Top2β” value [2]?
Answer: +

Question: What about the “activity against Top2β” value [2] of the same compound?
Answer: 10 fold

Question: What about the “activity against Top2α” value [3] of the same compound?
Answer: roughly 20 fold

Question: Which “effect on doxorubicin-induced γ-H2AX” value (H9C2 cardiomyocytes [4]) does the source give for O=C1O[C@H]([C@@H](O)CO)C(O)=C1O [vitamin C] here?
Answer: unaffected

Question: How did the IC50 (A549 lung carcinoma) turn out when “1,2-dibenzyl-9-fluorobenzyl-9H-pyrido[3,4-b]indol-2-ium [compound 9]” was run?
Answer: 4200 nM

Question: And the “Poisoning activity against Top2β” value [2]?
Answer: −

Question: And the “activity against Top2β” value [2]?
Answer: non-detectable

Question: And the “activity against Top2α” value [3]?
Answer: roughly 20 fold

Question: With COc1cccc2c1C(=O)c1c(O)c3c(c(O)c1C2=O)C[C@@](O)(C(=O)CO)C[C@@H]3O[C@H]1C[C@H](N)[C@H](O)[C@H](C)O1 [Doxorubicin, doxorubicin] as the compound, how does the “induction of γ-H2AX” value (H9C2 cardiomyocytes [4]; 0.1-10 μM, 1 hr) read?
Answer: concentration-dependent up to 1 μM

Question: For CC(C)C[C@H](NC(=O)[C@H](Cc1ccccc1)NC(=O)c1cnccn1)B(O)O [bortezomib], which “effect on doxorubicin-induced comet tail moment” value (H9C2 cardiomyocytes [5]) is on record?
Answer: significantly reduced

Question: What about the “effect on dexrazoxane-induced degradation of Top2β” value (Top2β) of the same compound?
Answer: abolished

Question: Which results are given for COc1cc([C@@H]2c3cc4c(cc3[C@@H](O[C@@H]3O[C@@H]5CO[C@@H](C)O[C@H]5[C@H](O)[C@H]3O)[C@H]3COC(=O)[C@H]23)OCO4)cc(OC)c1O [VP16, etoposide]?
Answer: more melanomas in TOP2β+ mice than in skin-specific Top2β knockout mice ([1]; mouse, in vivo): 2-13 fold; IC50 ([6]; Top2β+/− MEFs): 38 ± 7 nM; IC50 ([6]; Top2β−/− MEFs): 40 ± 6 nM; IC50 ([7]; Top2β-shRNA-PC12 cells): 1600 ± 100 nM; IC50 ([7]; control-shRNA-PC12 cells): 1900 ± 100 nM
